Test results published in patent publication US20160031839A1, “ARGININE […] INHIBITORS AND USES THEREOF” (EPIZYME, INC., priority 2013, published 2016).
pIC50: −log10 of the molar value. Where two headings read alike, the source gives them in different places.

Experiments:
PRMT1 = target: T1, PRMT1 (Homo sapiens, UniProt Q99873); experiment: PRMT1 Biochemical Assay
T1 construct: made in house; host or cells: High Five insect cells (baculovirus)
Excerpt: Peptide representative of human histone H4 residues 36-50 was synthesized with an N-terminal linker-affinity tag motif and a C-terminal amide cap by 21st Century Biochemicals. The peptide was purified by high-performance liquid chromatography (HPLC) to greater than 95% purity and confirmed by liquid chromatography mass spectrometry (LC-MS). The sequence was Biot-Ahx-[…]-amide (SEQ ID NO.:1).
Full-length human PRMT1 isoform 1 (NM_001536.5) transcript clone was amplified from an HEK 293 cDNA library, incorporating flanking 5′ sequence encoding a FLAG tag ([…]) (SEQ ID NO.:2) fused directly to Met 1 of PRMT1. The amplified gene was subcloned into pFastBacI (Life Technologies) modified to encode an N-terminal GST tag and a TEV cleavage sequence
GST-tagged PRMT1 was eluted with 50 mM Tris, 2 mM glutathione, pH 7.8, dialysed in buffer A and concentrated to 1 mg/mL. The purity of recovered protein was 73%. Reference: Wasilko, D. J. and S. E. Lee: “TIPS: titerless infected-cells preservation and scale-up” Bioprocess J., 5 (2006), pp. 29-32.
General Procedure for PRMT1 Enzyme Assays on Peptide Substrates.
The assays were all performed in a buffer consisting of 20 mM Bicine (pH=7.6), 1 mM TCEP, 0.005% BSG, and 0.002% Tween 20, prepared on the day of use. Compounds in 100% DMSO (1 ul) were spotted into a polypropylene 384-well V-bottom plates (Greiner) using a Platemate Plus outfitted with a 384-channel head (Thermo Scientific). DMSO (1 ul) was added to Columns 11, 12, 23, 24, rows A-H for the maximum signal control and 1 ul of SAH, a known product and inhibitor of PRMT1, was added to columns 11, 12, 23, 24, rows I-P for the minimum signal control. A cocktail (40 ul) containing the PRMT1 enzyme was added by Multidrop Combi (Thermo-Fisher). The compounds were allowed to incubate with PRMT1 for 30 min at room temperature, then a cocktail (10 ul) containing SAM and peptide was added to initiate the reaction (final volume=51 ul). The final concentrations of the components were as follows: PRMT1 was 0.5 nM, ^3H-SAM was 200 nM, non-radiolabeled SAM was 1.5 uM, peptide was 20 nM, SAH in the minimum signal control wells was 1 mM, and the DMSO concentration was 2%. The assays were stopped by the addition of non-radiolabeled SAM (10 ul) to a final concentration of 300 uM, which dilutes the ^3H-SAM to a level where its incorporation into the peptide substrate is no longer detectable. 50 ul of the reaction in the 384-well polypropylene plate was then transferred to a 384-well Flashplate and the biotinylated peptides were allowed to bind to the streptavidin surface for at least 1 hour before being washed once with 0.1% Tween20 in a Biotek ELx405 plate washer. The plates were then read in a PerkinElmer TopCount plate reader to measure the quantity of ^3H-labeled peptide bound to the Flashplate surface, measured as disintegrations per minute (dpm) or alternatively, referred to as counts per minute (cpm).
(§1) Where dpm=disintegrations per minute, cmpd=signal in assay well, and min and max are the respective minimum and maximum signal controls.
(§2) Where top and bottom are the normally allowed to float, but may be fixed at 100 or 0 respectively in a 3-parameter fit. The Hill Coefficient normally allowed to float but may also be fixed at 1 in a 3-parameter fit. Y is the % inhibition and X is the compound concentration.

PRMT6 = target: T2, PRMT6 (Homo sapiens, UniProt Q96LA8); experiment: PRMT6 Biochemical Assay
T2 construct: Expressed full-length human Flag- and His-tagged PRMT6 protein was purified from cell paste; made in house; host or cells: HEK 293F cells (BacMam baculovirus)
Excerpt: Peptide representative of human histone H4 residues 36-50 was synthesized with an N-terminal linker-affinity tag motif and a C-terminal amide cap by 21st Century Biochemicals. The peptide was purified by high-performance liquid chromatography (HPLC) to greater than 95% purity and confirmed by liquid chromatography mass spectrometry (LC-MS). The sequence was Biot-Ahx-[…]-amide and contained a monomethylated lysine at position 44 (SEQ ID NO.:5).
Full-length human PRMT6 (NM_018137.2) transcript clone was amplified from an HEK 293 cDNA library, incorporating a flanking 5′ sequence encoding a FLAG tag ([…]) (SEQ ID NO.:6) fused directly to Ser 2 of PRMT6 and a 3′ sequence encoding a hexa His sequence (HHHHHH) (SEQ ID NO.:17) fused directly to Asp 375. The amplified gene was subcloned into pFastBacMam (Viva Biotech).
Column was washed with 20 mM imidazole in the same buffer and Flag-PRMT6-His was eluted with 150 mM imidazole. Pooled fractions were dialysed against buffer Ni-A and further purified by anti-flag M2 affinity chromatography. Flag-PRMT6-His was eluted with 200 ug/ml FLAG peptide in the same buffer. Pooled fractions were dialysed in 20 mM Tris, 150 mM NaCl, 10% glycerol and 5 mM (3-mercaptoethanol, pH 7.8. The purity of recovered protein was 95%.
General Procedure for PRMT6 Enzyme Assays on Peptide Substrates.
The assays were all performed in a buffer consisting of 20 mM Bicine (pH=7.6), 1 mM TCEP, 0.005% BSG, and 0.002% Tween 20, prepared on the day of use. Compounds in 100% DMSO (1 ul) were spotted into a polypropylene 384-well V-bottom plates (Greiner) using a Platemate Plus outfitted with a 384-channel head (Thermo Scientific). DMSO (1 ul) was added to Columns 11, 12, 23, 24, rows A-H for the maximum signal control and 1 ul of SAH, a known product and inhibitor of PRMT6, was added to columns 11, 12, 23, 24, rows I-P for the minimum signal control. A cocktail (40 ul) containing the PRMT6 enzyme was added by Multidrop Combi (Thermo-Fisher). The compounds were allowed to incubate with PRMT6 for 30 min at room temperature, then a cocktail (10 ul) containing SAM and peptide was added to initiate the reaction (final volume=51 ul). The final concentrations of the components were as follows: PRMT6 was 1 nM, ^3H-SAM was 200 nM, non-radiolabeled SAM was 250 nM, peptide was 75 nM, SAH in the minimum signal control wells was 1 mM, and the DMSO concentration was 2%. The assays were stopped by the addition of non-radiolabeled SAM (10 ul) to a final concentration of 400 uM, which dilutes the ^3H-SAM to a level where its incorporation into the peptide substrate is no longer detectable. 50 ul of the reaction in the 384-well polypropylene plate was then transferred to a 384-well Flashplate and the biotinylated peptides were allowed to bind to the streptavidin surface for at least 1 hour before being washed once with 0.1% Tween20 in a Biotek ELx405 plate washer. The plates were then read in a PerkinElmer TopCount plate reader to measure the quantity of ^3H-labeled peptide bound to the Flashplate surface, measured as disintegrations per minute (dpm) or alternatively, referred to as counts per minute (cpm).
as §1, §2

[1] = Table 2, biochemical evaluation, read-out: PRMT1 IC50 (class)
[2] = Table 2a, numerical, single experiment or average of multiple experiments, read-out: PRMT1 IC50
[3] = Table 2, biochemical evaluation, read-out: PRMT6 IC50 (class)
[4] = Table 2a, numerical, single experiment or average of multiple experiments, read-out: PRMT6 IC50

T2 sequence (Q96LA8 with tags, fused parts or gaps): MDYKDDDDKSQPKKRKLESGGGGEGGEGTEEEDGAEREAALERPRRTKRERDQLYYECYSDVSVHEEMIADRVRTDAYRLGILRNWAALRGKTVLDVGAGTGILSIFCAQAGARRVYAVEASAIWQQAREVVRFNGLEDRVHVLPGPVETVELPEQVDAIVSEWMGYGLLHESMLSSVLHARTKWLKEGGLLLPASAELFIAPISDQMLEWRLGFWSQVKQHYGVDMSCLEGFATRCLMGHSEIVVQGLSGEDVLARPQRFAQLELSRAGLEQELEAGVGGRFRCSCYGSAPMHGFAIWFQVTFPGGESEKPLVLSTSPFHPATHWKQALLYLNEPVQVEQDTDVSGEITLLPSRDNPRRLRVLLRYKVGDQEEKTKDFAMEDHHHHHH
T1 sequence (Q99873 with tags, fused parts or gaps): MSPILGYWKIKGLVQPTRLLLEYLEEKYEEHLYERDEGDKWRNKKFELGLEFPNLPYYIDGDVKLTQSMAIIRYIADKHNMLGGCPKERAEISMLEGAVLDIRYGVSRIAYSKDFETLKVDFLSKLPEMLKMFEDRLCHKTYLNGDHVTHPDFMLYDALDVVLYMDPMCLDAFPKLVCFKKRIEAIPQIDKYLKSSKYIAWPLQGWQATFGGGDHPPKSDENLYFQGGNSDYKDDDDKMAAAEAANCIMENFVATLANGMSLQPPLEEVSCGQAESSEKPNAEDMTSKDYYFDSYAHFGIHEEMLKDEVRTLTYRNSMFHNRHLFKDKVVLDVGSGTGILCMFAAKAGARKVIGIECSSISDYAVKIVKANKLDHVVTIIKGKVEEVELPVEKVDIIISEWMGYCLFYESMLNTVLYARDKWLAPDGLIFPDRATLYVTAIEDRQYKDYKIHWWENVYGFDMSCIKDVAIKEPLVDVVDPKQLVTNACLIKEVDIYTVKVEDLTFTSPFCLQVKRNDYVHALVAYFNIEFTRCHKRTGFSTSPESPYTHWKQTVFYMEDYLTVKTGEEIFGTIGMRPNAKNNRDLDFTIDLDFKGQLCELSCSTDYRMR

SMILES	pIC50 (PRMT1; [1])	pIC50 (PRMT1; [2])	pIC50 (PRMT6; [3])	pIC50 (PRMT6; [4])
CN(CCN)Cc1ocnc1-c1ccc(C#N)cc1 [Compound 4, 4-(5-(((2-aminoethyl)(methyl)amino)methyl)oxazol-4-yl)benzonitrile]	6.00 to 7.00	6.57	6.00 to 7.00	6.78
CN(CCN)Cc1n[nH]nc1-c1ccc(C#N)cc1 [Compound 3, 4-(5-(((2-aminoethyl)(methyl)amino)methyl)-2H-1,2,3-triazol-4-yl)benzonitrile]	> 7.00	7.09	> 7.00	7.15
CN(CCN)Cc1ncoc1-c1ccc(C#N)cc1 [Compound 1, 4-(4-(((2-aminoethyl)(methyl)amino)methyl)oxazol-5-yl)benzonitrile]	6.00 to 7.00	6.50	6.00 to 7.00	6.46
CN(CCN)Cc1[nH]cnc1-c1ccc(C#N)cc1 [Compound 10, 4-(5-(((2-aminoethyl)(methyl)amino)methyl)-1H-imidazol-4-yl)benzonitrile]	6.00 to 7.00	6.67	6.00 to 7.00	6.77
CN(CCN)Cc1cncn1-c1ccc(C#N)cc1 [Compound 6, 4-(5-(((2-aminoethyl)(methyl)amino)methyl)-1H-imidazol-1-yl)benzonitrile]	5.52 to 6.00	5.77	5.52 to 6.00	5.96
CN(CCN)Cc1ccnn1-c1ccc(C#N)cc1 [Compound 2, 4-(5-(((2-aminoethyl)(methyl)amino)methyl)-1H-pyrazol-1-yl)benzonitrile]	6.00 to 7.00	6.80	> 7.00	7.01
CN(CCN)Cc1ccnn1-c1ccc(Oc2ccccc2)cc1 [Compound 9]	> 7.00	7.81	> 7.00	8.17
CN(CCN)Cc1cnnn1-c1ccc(C#N)cc1 [Compound 5, 4-(5-(((2-aminoethyl)(methyl)amino)methyl)-1H-1,2,3-triazol-1-yl)benzonitrile]	< 5.00	< 5.00	< 5.00	< 5.00
CC(C)Oc1ccc(-n2nccc2CN(C)CCN)cc1 [Compound 8, N^1-((1-(4-isopropoxyphenyl)-1H-pyrazol-5-yl)methyl)-N^1-methylethane-1,2-diamine]	> 7.00	7.86	> 7.00	7.33
CN(CCN)Cc1oncc1-c1ccc(F)cc1 [Compound 11, N^1-((4-(4-fluorophenyl)isoxazol-5-yl)methyl)-N^1-methylethane-1,2-diamine]	5.52 to 6.00	5.57	5.52 to 6.00	5.53
CN(CCN)Cc1nsnc1-c1ccc(C#N)cc1 [Compound 7, 4-(4-(((2-aminoethyl)(methyl)amino)methyl)-1,2,5-thiadiazol-3-yl)benzonitrile]	6.00 to 7.00	6.56	6.00 to 7.00	6.95
